Measurements from patent US6117849A, “S-(+)-adenosylmethionine and 3'-azido-2', 3'-dideoxy-nucleoside complexes as potent inhibitors of HIV-replication” (Symbio Herborn Group GmbH & Co., priority 1996, dated 2000).

Assays:
[1] = target: T1, reverse transcriptase (RT) (HIV-1 M:B_HXB2R, UniProt P04585); conditions: read-out: apparent Ki (recalculated, corrected for DTT); recalculated from literature
From the text: The disclosed inhibitory concentrations of SAM is meant as the apparent concentration of SAM, which inhibits under their in vitro assay conditions 50% of the RT activity. […] Inhibitory experiments using DTT, e g. for protecting sulfhydryl groups of the enzyme (RT), in their assay have to be omitted or corrected for, respectively, since DTT act as a strong reducing agent, particularly for SAM or SAM-tosylate-bis-sulfate which potentiates the reduction due to the sulfonium group which is being reduced to the sulfinium group, or to S-S-complexes comprising of SAM and DDT, respectively. […] Note, the determined inhibitory concentrations are not the ones which can be correlated to the ones according to Michaelis-Mentenkinetics.

HIV-1 isolate of HIV IIB = assay: HIV replication in de novo infected lymphocyte cultures, viral core protein p24 endpoint; assay type: cell-based, HIV-1 (in human peripheral blood lymphocytes); conditions: FIG. 1, p24
Procedure: For this purpose, SAM has been tested in a dose response titration ranging from 1000 μg/mL to 10 μg/mL final concentrations for the ability to inhibit HIV replication in de novo infected cells. Endpoint in this assay was the quantitative determination of the concentration of the viral core protein p24 as described by Mueller et al. (Mueller, Ch., Moritz, R., Prigge, G., Weitzel, D., Kunze, R., Kage, A., Koettgen, E., Fresenius Z. Anal. Chem.,330, 352-353, 1988). […] The toxicity testing of cellular proliferation was performed according to J. Mosmann (J. Immunological Methods, 65, 55-63, 1983). […] All experiments were carried out in triplicate cultures, including those for the various concentrations of the molecular complexes tested.--The lymphocytes were infected with a standardized preparation of HIV-1 isolate of HIV IIB. The cells were sedimented by low speed centrifugation, the sediment resuspended in the assay buffer (standard), and the resuspended cells were inoculated by adjusting to the following conditions: 100 ng of viral core protein p24/mL and 3200 pg HIV RNA/mL, respectively. Normally 3×10^8 lymphocytes were suspended in 1 mL if the HIV inoculum, and incubated at 37° C. for 60 minutes. After washing the cells twice with 50 mL of culture medium the cells were resuspended at a concentration of 3×10^6 cells/mL in culture medium which contains 10 units/mL of human recombinant interleukin-2. 100 μL of this cell suspension were added to 100 μL of the pre-diluted solution of the compounds to be tested, without adding any salt or protein. The entire assay was cultivated in humidified atmosphere in the presence of 5% CO2 at 37° C. After the 4th day of infection the viral replication was determined in the lymphocyte cultures. The end point of the titration was the determination of the viral core protein p24 in the supernatant of each of the lymphocyte cultures. 150 μL of the supernatant were removed and transferred to a vial containing 50 μL/well SDS at a final concentration of 0.08% (w/w). The concentration of the synthesized p24 by the HIV infected cells was determined according to Mueller et al., using recombinant p24 as a standard for calibration.

[2] = system: RT (triphosphatase activity); assay: Triphosphatase activity in presence of RT and phosphate; assay type: biochemical, HIV; conditions: in the presence of phosphate (Pi)
From the text: Furthermore the efficiency of such molecular complexes is also seen on the rate at which they are metabolized intra cellularly to the corresponding free ddNMP available to be further transformed to the triphosphate derivative active on the RT, which is enhanced due to these molecular complexes as shown through the kinetics in-vitro and in-vivo. In order to make this transformation feasible, the unique and stable molecular conformation of these complexes and their solvation facilitates the inhibitory and regulatory effects on RT, lipid penetration and inhibitory effects on the growing infective RNA or DNA polymeric chains. The avoidance of e.g. AZT-monophosphate accumulation, similarly also for other ddN N3 compounds, which causes severe inhibition of cellular dTMP kinase, resulting in a blockade of further phosphorylation steps, while on the contrary, the disclosed molecular complexes, appear to be unable to induce the same effects and is clearly incapable of inhibiting their own phosphorylation. This is completely different from those of the single administration of the components, e.g. SAM and ddN≈N3. […] This is also endorsed by the findings that the kinetics of inhibition on the RT enzyme is influenced by the presence of inorganic phosphate resulting in restoring active ATP during the presence of SAM. […]

[3] = target: T1, reverse transcriptase (RT); assay type: biochemical; set-up: A2: RT in cord-blood lymphocyte cultures infected with HIV from an AIDS patient
Procedure: The second in-vitro test uses the enzymatic activity of RT, testing the kinetic and inhibitory action of the molecular complexes. The cloning of the RT in biologically active form made it possible to have large quantities of the RT enzyme available for these studies (RT from Sigma, lot # R 9376).
The steady state reaction conditions for RT are chosen that approximate physiological conditions are met: pH 7.45 (37° C.), ionic strength of 150 mM, routinely a buffer was employed consisting of 50 mM TRIS-HCl, 100 mM KCl, 5 mM MgCl2, the addition of 10 μg/mL bovine serum albumin were included. […] The aforementioned precautions designed to avoid potential reduction of SAM in the presence of DTT are taken into accounts to preclude any distortions of the kinetic behavior of the RT enzyme in the presence of the various substrates e.g. as our molecular compounds. […] The enzyme concentrations of RT was approx. 20 nM, T-P (template-primer) […] and 25 μM of [^3 H]-dNTP (assay conditions are modified fro those of Mayunder et al., J. biol. Chem.,263, 15657, 1988). […] In case both parameters are effected to the same extent, then the inhibition is uncompetitive. In order to facilitate the difference between SAM kinetics and those for the molecular complexes we studied first SAM kinetics and subsequently the kinetics in the presence of the molecular complexes. […] Similar experiments have been carries out with dGTP.
The enzyme was assayed with 50 nM primer sites on poly (rA): oligo (dT), and variable concentrations of [^3 H] dTP as substrates in a reaction mixture as described above at pH 7.5 (37° C.).

IL-β, IL-2 = assay: Cytokine biosynthesis after stimulation of lymphocytes; assay type: cell-based; conditions: after phytohemagglutination stimulation
[4] = human, in vivo
HIV = assay: TPA- or cytokine-stimulated HIV replication/expression; assay type: cell-based; conditions: in vitro
thymidylate kinase = assay: Inhibition of thymidylate kinase, in vitro; assay type: biochemical

C[S+](CC[C@H](N)C(=O)O)C[C@H]1O[C@@H](n2cnc3c(N)ncnc32)[C@H](O)[C@@H]1O (single isomer, unassigned; (+)) [SAM, (+)-5'-[(3-amino-3-carboxypropyl)methylsulfinio]-5'-deoxyadenosine]
fraction unbound (in vitro): 0.95 to 0.97
Ki [1]: 200 to 250 nM
inhibition of HIV replication (HIV-1 isolate of HIV IIB): inhibited HIV replication in a dose dependent response
triphosphatase activity [2]: stimulated
stability in RT assay with DTT [3]: destroy SAM
cytokine biosynthesis (IL-β, IL-2) (IL-β, IL-2): influenced
CSF peak of SAM relative to plasma [4]: lower and more prolonged for healthy patients
cytokine-activation of HIV expression (HIV): does not inhibit cytokine-activation of HIV expression in vitro
inhibition of thymidylate kinase (thymidylate kinase): reversal of the inhibition of the thymidylate kinase
